This note sets out measurements from ChEMBL document CHEMBL3259595, “Nitric oxide synthase inhibitors that interact with both heme propionate and tetrahydrobiopterin show high isoform selectivity” (J Med Chem, 2014).

Assay [1] has as its target T1, Nitric oxide synthase, inducible (Mus musculus, UniProt P29477).
T1 sequence (P29477 whole entry): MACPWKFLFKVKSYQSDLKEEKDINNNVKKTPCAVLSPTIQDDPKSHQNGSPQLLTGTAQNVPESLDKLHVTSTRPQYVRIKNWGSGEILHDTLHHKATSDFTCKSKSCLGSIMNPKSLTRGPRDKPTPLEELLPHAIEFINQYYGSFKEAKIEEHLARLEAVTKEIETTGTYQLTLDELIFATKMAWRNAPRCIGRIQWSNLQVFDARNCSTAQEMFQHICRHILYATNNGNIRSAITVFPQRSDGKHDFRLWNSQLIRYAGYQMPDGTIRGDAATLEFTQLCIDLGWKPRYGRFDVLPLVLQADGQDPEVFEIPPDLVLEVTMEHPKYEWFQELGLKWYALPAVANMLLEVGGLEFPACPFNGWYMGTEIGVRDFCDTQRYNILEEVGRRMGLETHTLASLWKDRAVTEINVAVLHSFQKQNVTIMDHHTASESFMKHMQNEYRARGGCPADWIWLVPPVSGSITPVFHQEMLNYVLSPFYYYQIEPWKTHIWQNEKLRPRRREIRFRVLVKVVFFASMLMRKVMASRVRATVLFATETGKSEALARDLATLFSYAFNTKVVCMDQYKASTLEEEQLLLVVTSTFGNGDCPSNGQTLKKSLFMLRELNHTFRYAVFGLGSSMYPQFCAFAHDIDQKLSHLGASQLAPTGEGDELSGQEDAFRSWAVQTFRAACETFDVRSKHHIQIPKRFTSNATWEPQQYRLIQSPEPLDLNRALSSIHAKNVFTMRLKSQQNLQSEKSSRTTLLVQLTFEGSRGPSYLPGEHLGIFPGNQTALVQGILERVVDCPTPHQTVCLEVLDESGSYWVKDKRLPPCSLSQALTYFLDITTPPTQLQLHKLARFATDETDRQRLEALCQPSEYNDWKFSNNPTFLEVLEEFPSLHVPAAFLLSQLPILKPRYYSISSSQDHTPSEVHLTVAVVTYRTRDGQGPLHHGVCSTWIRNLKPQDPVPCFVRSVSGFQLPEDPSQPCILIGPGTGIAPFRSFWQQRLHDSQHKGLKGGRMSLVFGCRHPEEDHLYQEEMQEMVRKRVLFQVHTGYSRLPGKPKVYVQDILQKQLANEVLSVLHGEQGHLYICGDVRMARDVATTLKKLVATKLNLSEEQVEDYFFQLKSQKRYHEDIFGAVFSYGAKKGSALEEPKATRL
Nature of the assay: Inhibition of purified mouse iNOS assessed as inhibition of nitric oxide-mediated oxidation of hemoglobin-A by hemoglobin capture assay.

Assay [2] is described as follows: Selectivity ratio of Ki for purified mouse iNOS to Ki for purified rat nNOS.
A short description of assay [3]: Selectivity ratio of Ki for purified bovine eNOS to Ki for purified rat nNOS.
The target of assay [4] is T2, Nitric oxide synthase 3 (Bos taurus, UniProt P29473).
T2 sequence (P29473 whole entry): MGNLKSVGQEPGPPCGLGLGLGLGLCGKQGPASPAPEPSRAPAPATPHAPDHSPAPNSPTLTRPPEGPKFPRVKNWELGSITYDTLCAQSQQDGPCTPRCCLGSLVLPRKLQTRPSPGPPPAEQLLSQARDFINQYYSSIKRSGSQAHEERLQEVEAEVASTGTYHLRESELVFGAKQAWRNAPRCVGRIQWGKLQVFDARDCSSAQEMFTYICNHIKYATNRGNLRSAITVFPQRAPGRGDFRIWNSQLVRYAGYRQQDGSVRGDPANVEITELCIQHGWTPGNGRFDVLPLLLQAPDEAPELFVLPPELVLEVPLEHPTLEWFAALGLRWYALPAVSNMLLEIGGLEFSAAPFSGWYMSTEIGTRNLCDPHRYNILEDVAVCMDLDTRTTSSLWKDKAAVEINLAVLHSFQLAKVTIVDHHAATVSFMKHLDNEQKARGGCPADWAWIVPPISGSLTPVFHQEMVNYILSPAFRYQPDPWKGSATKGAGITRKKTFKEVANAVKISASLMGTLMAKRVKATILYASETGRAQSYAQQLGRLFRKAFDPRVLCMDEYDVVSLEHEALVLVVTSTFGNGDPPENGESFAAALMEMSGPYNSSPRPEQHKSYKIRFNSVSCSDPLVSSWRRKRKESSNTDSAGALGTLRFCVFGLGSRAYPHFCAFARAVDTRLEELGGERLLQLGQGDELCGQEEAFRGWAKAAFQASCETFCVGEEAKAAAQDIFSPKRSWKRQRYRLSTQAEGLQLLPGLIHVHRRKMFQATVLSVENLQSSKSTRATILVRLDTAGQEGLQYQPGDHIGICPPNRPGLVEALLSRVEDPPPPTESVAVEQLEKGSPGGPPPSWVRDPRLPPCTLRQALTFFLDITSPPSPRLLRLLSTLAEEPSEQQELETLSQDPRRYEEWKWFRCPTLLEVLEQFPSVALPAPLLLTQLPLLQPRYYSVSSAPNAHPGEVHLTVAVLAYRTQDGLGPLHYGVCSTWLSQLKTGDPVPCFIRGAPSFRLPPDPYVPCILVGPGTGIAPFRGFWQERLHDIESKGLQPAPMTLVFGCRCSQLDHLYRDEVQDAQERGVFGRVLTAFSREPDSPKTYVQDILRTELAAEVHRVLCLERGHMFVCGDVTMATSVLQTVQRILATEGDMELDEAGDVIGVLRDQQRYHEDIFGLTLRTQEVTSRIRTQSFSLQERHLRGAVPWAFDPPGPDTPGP
As to the kind of experiment: Inhibition of purified bovine eNOS assessed as inhibition of nitric oxide-mediated oxidation of hemoglobin-A by hemoglobin capture assay.

Assay [5] has as its target Nitric oxide synthase 1 (Rattus norvegicus, UniProt P29476). Nature of the assay: Inhibition of purified rat nNOS assessed as inhibition of nitric oxide-mediated oxidation of hemoglobin-A by hemoglobin capture assay.

Nitric oxide synthase 1, sequence (P29476 whole entry): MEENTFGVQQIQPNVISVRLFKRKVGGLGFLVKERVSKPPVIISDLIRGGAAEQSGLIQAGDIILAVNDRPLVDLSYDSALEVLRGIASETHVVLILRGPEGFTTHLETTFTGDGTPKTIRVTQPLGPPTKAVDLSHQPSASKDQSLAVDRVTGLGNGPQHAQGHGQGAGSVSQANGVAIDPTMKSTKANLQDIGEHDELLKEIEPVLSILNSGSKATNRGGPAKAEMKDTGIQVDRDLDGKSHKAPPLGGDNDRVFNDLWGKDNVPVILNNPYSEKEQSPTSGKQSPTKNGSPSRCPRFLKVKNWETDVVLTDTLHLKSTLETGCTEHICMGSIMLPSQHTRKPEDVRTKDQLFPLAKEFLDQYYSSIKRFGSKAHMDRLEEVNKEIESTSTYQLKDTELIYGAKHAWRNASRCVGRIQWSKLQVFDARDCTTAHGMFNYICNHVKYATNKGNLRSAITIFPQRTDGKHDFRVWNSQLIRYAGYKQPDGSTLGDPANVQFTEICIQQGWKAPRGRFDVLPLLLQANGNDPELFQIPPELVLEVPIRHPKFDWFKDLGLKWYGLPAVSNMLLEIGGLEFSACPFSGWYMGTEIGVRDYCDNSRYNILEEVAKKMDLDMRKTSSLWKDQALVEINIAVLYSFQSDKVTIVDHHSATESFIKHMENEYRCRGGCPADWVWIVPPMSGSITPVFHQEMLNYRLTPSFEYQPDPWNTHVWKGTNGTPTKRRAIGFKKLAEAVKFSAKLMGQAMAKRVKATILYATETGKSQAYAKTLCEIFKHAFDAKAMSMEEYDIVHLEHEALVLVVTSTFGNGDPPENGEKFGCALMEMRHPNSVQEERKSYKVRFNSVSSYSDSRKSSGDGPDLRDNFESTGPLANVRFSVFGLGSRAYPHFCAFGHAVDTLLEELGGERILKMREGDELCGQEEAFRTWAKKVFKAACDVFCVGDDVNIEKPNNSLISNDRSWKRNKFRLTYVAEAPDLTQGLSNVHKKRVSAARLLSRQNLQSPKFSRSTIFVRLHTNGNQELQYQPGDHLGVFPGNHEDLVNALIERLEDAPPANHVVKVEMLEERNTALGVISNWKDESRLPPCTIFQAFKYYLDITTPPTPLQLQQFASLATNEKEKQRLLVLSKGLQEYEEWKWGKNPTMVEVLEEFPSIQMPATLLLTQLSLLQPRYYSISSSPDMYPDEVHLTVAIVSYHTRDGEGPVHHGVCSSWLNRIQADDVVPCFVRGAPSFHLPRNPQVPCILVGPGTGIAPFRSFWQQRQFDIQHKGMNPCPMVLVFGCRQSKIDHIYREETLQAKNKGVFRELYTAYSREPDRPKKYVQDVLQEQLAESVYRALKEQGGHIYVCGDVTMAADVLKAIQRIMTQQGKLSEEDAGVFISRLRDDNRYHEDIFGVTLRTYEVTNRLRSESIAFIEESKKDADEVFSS

For `Cc1ccnc(CCc2cccc([C@@H](N)Cc3cc(C)cc(N)n3)c2)c1`, the Ki in assay [1] was more than 100 µM. Also, the Ratio Ki in assay [2] was more than 110; in assay [3] it was 363.

`Cc1cc(N)nc(CCc2cccc(C(O)Cc3cc(C)cc(N)n3)c2)c1` (configuration not stated): the inhibition constant Ki in assay [1] amounted to 5.99 µM; in assay [4], 3.61 µM; in assay [5], 0.07 µM. In addition, the Ratio Ki was determined as 86 in assay [2] and 52 in assay [3].

`Cc1cc(N)nc(CCc2cccc(C(CN)Cc3cc(C)cc(N)n3)n2)c1` (racemic): the Ki is 17.9 µM in assay [1] and 0.123 µM in assay [5].

Consider `Cc1ccnc(CCc2cccc([C@H](N)Cc3cc(C)cc(N)n3)c2)c1`, for which the results for the Ki in assay [1] and in assay [4] were more than 100 µM and 1050 µM, respectively.

A word on the Ki: it is the dissociation constant of the complex between target and ligand, obtained from inhibition or displacement.
